The results in this text go back to patent US8748458B2, “Scriptaid isosteres and their use in therapy” (Karus Therapeutics Limited, priority 2009, dated 2014).

Test [1] concerns Total HDAC (HeLa Nuclear Extracts). Nature of the test: Total HDAC inhibition (HeLa nuclear extracts). In kind it is biochemical.
In test [2] the target is HDAC1 (Homo sapiens (Human), UniProt Q13547). Nature of the test: HDAC1 inhibition. It counts as biochemical.
Test [3] addresses HDAC6 (Homo sapiens (Human), UniProt Q9UBN7). Nature of the test: HDAC6 inhibition. In kind it is biochemical.
For test [4], the system named is MCF7 Breast Tumour Cell. Nature of the test: MCF7 Breast Tumour Cell Proliferation Inhibition. The following applies: Homo sapiens; MCF7 cells. It counts as cell-based.
The target of test [5] is HDAC2 (Homo sapiens (Human), UniProt Q92769). As to the kind of experiment: HDAC2 inhibition. It counts as biochemical.
Test [6] deals with HDAC3 (Homo sapiens (Human), UniProt O15379). Nature of the test: HDAC3 inhibition. It counts as biochemical.
Test [7] concerns the target HDAC4 (Homo sapiens (Human), UniProt P56524). As to the kind of experiment: HDAC4 inhibition. It counts as biochemical.
Test [8] relates to TNFα. As to the kind of experiment: TNFα inhibition (LPS-stimulated human PBMCs). In kind it is cell-based. The conditions noted are these: PBMC.
The target of test [9] is HDAC5 (Homo sapiens (Human), UniProt Q9UQL6). Nature of the test: HDAC5 inhibition. In kind it is biochemical.
Test [10] deals with HDAC8 (Homo sapiens (Human), UniProt Q9BY41). As to the kind of experiment: HDAC8 inhibition. In kind it is biochemical.
Test [11] concerns the target HDAC9 (Homo sapiens (Human), UniProt Q9UKV0). As to the kind of experiment: HDAC9 inhibition. It counts as biochemical.
The target in test [12] is HDAC10 (Homo sapiens (Human), UniProt Q969S8). As to the kind of experiment: HDAC10 inhibition. It counts as biochemical.
Test [13] deals with HDAC11 (Homo sapiens (Human), UniProt Q96DB2). Nature of the test: HDAC11 inhibition. In kind it is biochemical.

pIC50: −log10 of the molar value.

Sequence of HDAC9 (Q9UKV0 whole entry, species assumed): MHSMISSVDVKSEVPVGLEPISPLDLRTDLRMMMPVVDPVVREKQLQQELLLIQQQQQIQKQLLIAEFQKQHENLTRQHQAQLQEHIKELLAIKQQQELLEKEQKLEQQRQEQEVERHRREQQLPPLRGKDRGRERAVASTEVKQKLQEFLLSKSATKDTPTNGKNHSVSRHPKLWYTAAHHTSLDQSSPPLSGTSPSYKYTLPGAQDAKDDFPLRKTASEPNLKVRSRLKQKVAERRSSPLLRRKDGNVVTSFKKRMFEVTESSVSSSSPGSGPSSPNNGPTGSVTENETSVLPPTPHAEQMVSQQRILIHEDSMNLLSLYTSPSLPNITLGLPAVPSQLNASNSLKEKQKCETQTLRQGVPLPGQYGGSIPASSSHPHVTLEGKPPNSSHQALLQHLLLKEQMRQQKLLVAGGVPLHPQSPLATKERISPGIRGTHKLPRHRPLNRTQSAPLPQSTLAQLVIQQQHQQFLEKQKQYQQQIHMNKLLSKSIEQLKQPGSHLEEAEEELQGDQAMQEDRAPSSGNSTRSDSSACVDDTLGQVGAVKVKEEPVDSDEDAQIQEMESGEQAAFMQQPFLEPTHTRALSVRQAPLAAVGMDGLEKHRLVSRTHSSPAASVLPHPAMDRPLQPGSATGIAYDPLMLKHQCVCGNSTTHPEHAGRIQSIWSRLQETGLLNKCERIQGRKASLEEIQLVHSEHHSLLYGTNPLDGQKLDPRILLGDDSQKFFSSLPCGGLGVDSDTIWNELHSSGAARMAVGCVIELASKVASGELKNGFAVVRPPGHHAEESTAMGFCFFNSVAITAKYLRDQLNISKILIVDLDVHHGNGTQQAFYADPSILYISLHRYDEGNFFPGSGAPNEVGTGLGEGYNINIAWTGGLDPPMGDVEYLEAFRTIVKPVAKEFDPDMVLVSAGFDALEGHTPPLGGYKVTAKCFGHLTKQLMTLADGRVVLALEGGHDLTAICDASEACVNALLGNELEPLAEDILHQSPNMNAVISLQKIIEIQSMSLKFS
Sequence of HDAC1 (Q13547 whole entry, species assumed): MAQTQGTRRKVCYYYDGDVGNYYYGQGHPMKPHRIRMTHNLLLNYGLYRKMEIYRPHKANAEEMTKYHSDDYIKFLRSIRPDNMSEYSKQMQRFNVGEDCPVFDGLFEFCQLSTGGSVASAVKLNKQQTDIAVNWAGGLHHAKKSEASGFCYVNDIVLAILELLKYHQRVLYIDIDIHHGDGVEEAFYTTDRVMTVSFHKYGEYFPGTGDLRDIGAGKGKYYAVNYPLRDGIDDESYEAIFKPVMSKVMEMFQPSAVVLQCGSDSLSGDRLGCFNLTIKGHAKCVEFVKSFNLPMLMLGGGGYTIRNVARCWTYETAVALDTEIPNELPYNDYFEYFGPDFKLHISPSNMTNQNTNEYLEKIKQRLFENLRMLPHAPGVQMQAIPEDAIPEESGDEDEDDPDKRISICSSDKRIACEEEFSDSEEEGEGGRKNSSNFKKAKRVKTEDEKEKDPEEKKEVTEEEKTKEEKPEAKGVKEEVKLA
Sequence of HDAC6 (Q9UBN7 whole entry, species assumed): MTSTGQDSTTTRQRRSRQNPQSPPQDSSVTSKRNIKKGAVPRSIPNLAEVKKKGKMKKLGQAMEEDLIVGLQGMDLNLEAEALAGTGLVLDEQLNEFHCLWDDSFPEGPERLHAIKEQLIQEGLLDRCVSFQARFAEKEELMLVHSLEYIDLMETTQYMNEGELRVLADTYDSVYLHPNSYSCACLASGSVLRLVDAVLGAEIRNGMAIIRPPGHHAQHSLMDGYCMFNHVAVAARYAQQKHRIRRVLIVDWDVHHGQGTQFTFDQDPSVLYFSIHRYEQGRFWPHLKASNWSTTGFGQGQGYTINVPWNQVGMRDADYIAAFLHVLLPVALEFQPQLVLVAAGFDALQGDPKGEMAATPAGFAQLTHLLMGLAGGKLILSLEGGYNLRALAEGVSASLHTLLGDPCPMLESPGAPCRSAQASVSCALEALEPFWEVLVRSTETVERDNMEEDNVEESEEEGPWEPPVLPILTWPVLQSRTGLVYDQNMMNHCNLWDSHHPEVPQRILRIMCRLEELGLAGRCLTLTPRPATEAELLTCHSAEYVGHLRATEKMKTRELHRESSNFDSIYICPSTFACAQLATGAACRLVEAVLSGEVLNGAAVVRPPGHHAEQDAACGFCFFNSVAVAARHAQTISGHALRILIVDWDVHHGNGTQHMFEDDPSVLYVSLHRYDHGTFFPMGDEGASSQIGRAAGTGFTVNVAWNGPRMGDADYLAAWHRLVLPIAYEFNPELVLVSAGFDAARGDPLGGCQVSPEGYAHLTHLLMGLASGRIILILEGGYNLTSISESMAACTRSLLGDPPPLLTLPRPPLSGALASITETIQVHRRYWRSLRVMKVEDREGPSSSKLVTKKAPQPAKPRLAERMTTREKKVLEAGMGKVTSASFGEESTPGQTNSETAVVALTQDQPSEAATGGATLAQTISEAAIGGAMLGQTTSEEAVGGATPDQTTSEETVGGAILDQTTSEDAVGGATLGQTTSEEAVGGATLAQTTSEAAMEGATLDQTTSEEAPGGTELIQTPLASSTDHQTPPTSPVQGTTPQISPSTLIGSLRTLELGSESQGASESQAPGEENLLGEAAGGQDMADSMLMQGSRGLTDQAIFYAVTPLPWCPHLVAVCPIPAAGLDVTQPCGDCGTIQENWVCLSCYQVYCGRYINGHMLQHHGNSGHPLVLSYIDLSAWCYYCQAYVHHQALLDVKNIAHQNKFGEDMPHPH
Sequence of HDAC2 (Q92769 whole entry, species assumed): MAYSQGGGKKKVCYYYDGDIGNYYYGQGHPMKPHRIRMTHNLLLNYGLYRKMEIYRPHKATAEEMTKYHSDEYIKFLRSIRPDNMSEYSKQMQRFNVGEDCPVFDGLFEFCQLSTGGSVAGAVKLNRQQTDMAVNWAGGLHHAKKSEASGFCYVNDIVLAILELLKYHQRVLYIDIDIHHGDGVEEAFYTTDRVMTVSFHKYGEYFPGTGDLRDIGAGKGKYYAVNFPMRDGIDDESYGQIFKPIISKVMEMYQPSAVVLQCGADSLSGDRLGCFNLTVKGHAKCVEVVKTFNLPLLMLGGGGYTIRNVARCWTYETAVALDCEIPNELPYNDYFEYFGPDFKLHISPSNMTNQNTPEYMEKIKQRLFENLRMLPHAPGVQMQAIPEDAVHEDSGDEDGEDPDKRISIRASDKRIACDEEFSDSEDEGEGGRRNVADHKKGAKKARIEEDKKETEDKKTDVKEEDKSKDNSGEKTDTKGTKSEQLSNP
Sequence of HDAC4 (P56524 whole entry, species assumed): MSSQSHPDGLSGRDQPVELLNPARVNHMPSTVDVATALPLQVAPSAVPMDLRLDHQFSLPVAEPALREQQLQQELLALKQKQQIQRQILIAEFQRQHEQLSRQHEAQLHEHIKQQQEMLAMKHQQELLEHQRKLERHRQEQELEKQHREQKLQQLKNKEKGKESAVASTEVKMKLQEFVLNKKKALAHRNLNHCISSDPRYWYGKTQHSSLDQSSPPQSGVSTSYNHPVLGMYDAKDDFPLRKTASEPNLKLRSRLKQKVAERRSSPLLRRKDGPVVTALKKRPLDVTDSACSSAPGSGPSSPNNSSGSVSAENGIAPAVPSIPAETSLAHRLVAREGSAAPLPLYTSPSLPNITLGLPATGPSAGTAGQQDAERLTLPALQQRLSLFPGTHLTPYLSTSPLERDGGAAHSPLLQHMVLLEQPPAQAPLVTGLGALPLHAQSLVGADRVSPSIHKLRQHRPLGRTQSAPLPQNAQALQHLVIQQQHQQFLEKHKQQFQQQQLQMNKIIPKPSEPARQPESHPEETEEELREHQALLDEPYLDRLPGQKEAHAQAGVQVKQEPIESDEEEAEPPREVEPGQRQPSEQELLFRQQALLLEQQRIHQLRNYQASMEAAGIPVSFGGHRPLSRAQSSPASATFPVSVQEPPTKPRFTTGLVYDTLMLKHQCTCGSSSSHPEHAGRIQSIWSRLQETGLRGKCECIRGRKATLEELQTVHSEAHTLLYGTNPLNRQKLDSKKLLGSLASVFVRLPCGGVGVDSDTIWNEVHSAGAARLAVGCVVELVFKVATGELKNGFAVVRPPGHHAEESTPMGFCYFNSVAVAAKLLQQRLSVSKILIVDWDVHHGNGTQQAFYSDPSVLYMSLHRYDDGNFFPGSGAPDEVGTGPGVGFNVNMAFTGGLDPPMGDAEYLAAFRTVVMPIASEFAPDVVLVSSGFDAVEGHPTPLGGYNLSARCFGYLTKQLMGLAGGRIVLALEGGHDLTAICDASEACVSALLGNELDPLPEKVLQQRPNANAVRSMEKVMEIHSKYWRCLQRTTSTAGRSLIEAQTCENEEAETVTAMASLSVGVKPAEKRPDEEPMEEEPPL
Sequence of HDAC3 (O15379 whole entry, species assumed): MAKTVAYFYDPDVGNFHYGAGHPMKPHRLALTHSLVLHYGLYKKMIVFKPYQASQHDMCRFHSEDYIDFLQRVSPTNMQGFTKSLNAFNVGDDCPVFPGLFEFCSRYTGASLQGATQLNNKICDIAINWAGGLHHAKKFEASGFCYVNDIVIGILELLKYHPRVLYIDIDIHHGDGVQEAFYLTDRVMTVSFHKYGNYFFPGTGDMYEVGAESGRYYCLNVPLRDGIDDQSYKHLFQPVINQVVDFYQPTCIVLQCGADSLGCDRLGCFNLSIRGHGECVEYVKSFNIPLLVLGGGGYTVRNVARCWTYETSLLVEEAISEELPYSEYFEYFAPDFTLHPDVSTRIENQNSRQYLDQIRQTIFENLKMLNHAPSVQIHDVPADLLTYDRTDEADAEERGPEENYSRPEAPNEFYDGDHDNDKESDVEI
Sequence of HDAC3 (Q9Y618 395-489 partner, species assumed): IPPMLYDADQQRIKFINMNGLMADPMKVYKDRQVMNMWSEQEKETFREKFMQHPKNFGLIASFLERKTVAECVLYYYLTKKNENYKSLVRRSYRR

With `O=C(CCCCC=C(c1ccccn1)c1ccccn1)NO` [Example 1, N-Hydroxy-7,7-di(pyridin-2-yl)hept-6-enamide], the pIC50 – broadly, −log10 of the IC50, conventionally taken in molar units – is 6.02 in test [1], 6.80 in [2], 7.17 in test [3] and 6.22 in test [4].
Consider `O=C(CCCCCN(c1ccccn1)c1ccccn1)NO` [Example 2, 6-(Dipyridin-2-ylamino)-N-hydroxyhexanamide], for which the values for the pIC50 in test [1] and in test [4] were 5.60 and 5.63, respectively.
As for `O=C(CCCCCCN(c1ccccn1)c1ccccn1)NO` [Example 3, 7-(Dipyridin-2-ylamino)-N-hydroxyheptanamide], the pIC50 in [1] was 6.61; in test [5] it was 5.81; in [6], 6.15; in test [7], 6.51; in test [3], 8.05; in test [8], 7.00.
With `O=C(CCCCCCN(c1ccccn1)c1ccc2ccccc2n1)NO` [Example 4, N-Hydroxy-7-(pyridin-2-yl(quinolin-2-yl)amino)heptanamide], the pIC50 in test [1] is 7.09; in test [2] it was 7.15; in test [5] it was 6.67; in test [6] it was 7.21; in [7] it was 6.26; in test [9], 6.91. The pIC50 in [3] was 7.80; in test [10], 6.51; in test [11], 7.05; in test [12], 6.90; in [13] it was 6.95.
Consider `O=C(CCCCCC=C(c1ccccn1)c1ccccn1)NO` [Example 5, N-Hydroxy-8,8-di(pyridin-2-yl)oct-7-enamide], for which the pIC50 in test [1] was 6.38; in [2] it was 6.19; in test [3], 7.66.
As for `O=C(CCCCCCC(c1ccccn1)c1ccccn1)NO` [Example 6], the pIC50 in test [4] was 6.35.
Take `Cc1ccnc(N(CCCCCCC(=O)NO)c2ccccn2)c1` [Example 7, N-Hydroxy-7-((4-methylpyridin-2-yl)(pyridin-2-yl)amino)heptanamide]: the pIC50 was 6.11 in [1] and 6.35 in test [4].
On to `O=C(CCCCCCN(c1ccccn1)c1cc(-c2ccccc2)ccn1)NO` [Example 8, N-Hydroxy-7-((4-phenylpyridin-2-yl)(pyridin-2-yl)amino)heptanamide], for which the pIC50 in test [1] is 6.31; in test [2] it was 6.94; in test [3], 7.72; in test [4], 5.98.
For the compound `Cc1ccc(N(CCCCCCC(=O)NO)c2ccccn2)nc1` [Example 9, N-Hydroxy-7-((5-methylpyridin-2-yl)(pyridin-2-yl)amino)heptanamide], the pIC50 is 6.47 in test [1]; 6.34 in test [2]; 5.94 in test [5]; 7.51 in test [3]; 6.12 in test [11]; 6.16 in test [4].
As for `O=C(CCCCCCN(c1ccccn1)c1ccc(OCc2ccccc2)cn1)NO` [Example 10, 7-((5-(Benzyloxy)pyridin-2-yl)(pyridin-2-yl)amino)-N-hydroxyheptanamide], the pIC50 in test [1] is 5.97; in test [2], 6.74; in [3] it was 7.24; in test [4] it was 6.55.
As to `COc1ccc(N(CCCCCCC(=O)NO)c2ccccn2)nc1` [Example 11, N-Hydroxy-7-((5-methoxypyridin-2-yl)(pyridin-2-yl)amino)heptanamide], the negative-log IC50 (pIC50) in test [1] is 6.39; in [2] it was 6.74; in [5] it was 6.05; in [3] it was 7.89; in test [11], 6.12; in [4] it was 6.53.
In the case of `O=C(CCCCCCN(c1ccccn1)c1ccc(-c2ccccc2)cn1)NO` [Example 12, N-Hydroxy-7-((5-phenylpyridin-2-yl)(pyridin-2-yl)amino)heptanamide], the results for the pIC50 in test [1] and in test [4] were 6.51 and 7.09, respectively.
In the case of `O=C(CCCCCCN(c1ccccn1)c1ccc(-c2ccc(F)cc2)cn1)NO` [Example 13, 7-((5-(4-Fluorophenyl)pyridin-2-yl)(pyridin-2-yl)amino)-N-hydroxyheptanamide], the pIC50 is 6.28 in test [1] and 6.45 in [4].
Take `O=C(CCCCCCN(c1ccccn1)c1cc2ccccc2cn1)NO` [Example 14, 7-(Isoquinolin-3-yl-pyridin-2-yl-amino)-heptanoic acid hydroxyamide]: the pIC50 in test [1] was 6.47; in test [2], 7.19; in test [5] it was 6.51; in [3], 8.70; in test [11], 6.84; in test [4] it was 6.77.
Turning to `O=C(CCCCCCN(c1ccccn1)c1cc(OCc2ccccc2)ccn1)NO` [Example 15, 7-[(4-Benzyloxy-pyridin-2-yl)-pyridin-2-yl-amino]-heptanoic acid hydroxyamide], the pIC50 is 5.90 in [1]; 6.82 in [2]; 6.21 in [5]; 8.52 in test [3]; 6.37 in test [11]; 6.39 in test [4].
For `COc1ccnc(N(CCCCCCC(=O)NO)c2ccccn2)c1` [Example 16, 7-[(4-Methoxy-pyridin-2-yl)-pyridin-2-yl-amino]-heptanoic acid hydroxyamide], the figures for the pIC50 in test [1] and in [4] were 5.97 and 5.96, respectively.
Turning to `CCOc1ccnc(N(CCCCCCC(=O)NO)c2ccccn2)c1` [Example 17, 7-[(4-Ethoxy-pyridin-2-yl)-pyridin-2-yl-amino]-heptanoic acid hydroxyamide], the pIC50 was 6.22 in test [1] and 6.34 in test [4].
For the compound `CCCOc1ccnc(N(CCCCCCC(=O)NO)c2ccccn2)c1` [Example 18, 7-[(4-Propoxy-pyridin-2-yl)-pyridin-2-yl-amino]-heptanoic acid hydroxyamide], the values for the pIC50 in test [1] and in test [4] were 6.09 and 6.24, respectively.
As to `CC(C)Oc1ccnc(N(CCCCCCC(=O)NO)c2ccccn2)c1` [Example 19, 7-[(4-Isopropoxy-pyridin-2-yl)-pyridin-2-yl-amino]heptanoic acid hydroxyamide], the figures for the pIC50 in test [1] and in [4] were 6.49 and 6.32, respectively.
With `O=C(CCCCCCN(c1cccnc1)c1ccccn1)NO` [Example 20, 7-(Pyridin-3-yl-pyridin-2-yl-amino)-heptanoic acid hydroxyamide], the pIC50 in test [1] is 6.27.
Still for that read-out and setting: the value for `O=C(CCCCCCN(c1ccccn1)c1cc(-c2ccc(F)cc2)ccn1)NO` [Example 21, 7-{[4-(4-Fluoro-phenyl)-pyridin-2-yl]-pyridin-2-yl-amino}-heptanoic acid hydroxyamide] was 5.97.
`Nc1ccc(-c2ccnc(N(CCCCCCC(=O)NO)c3ccccn3)c2)cc1` [Example 22, 7-{[4-(4-Amino-phenyl)-pyridin-2-yl]-pyridin-2-yl-amino}-heptanoic acid hydroxyamide]: the results for the pIC50 in [1] and in [4] were 6.53 and 7.41, respectively.
Regarding `Cc1ccc(-c2ccnc(N(CCCCCCC(=O)NO)c3ccccn3)c2)cc1` [Example 23, 7-[Pyridin-2-yl-(4-p-tolyl-pyridin-2-yl)-amino]-heptanoic acid hydroxyamide], the results for the pIC50 in test [1] and in test [4] were 5.97 and 7.11, respectively.
The matching figures for `Cc1ccccc1-c1ccnc(N(CCCCCCC(=O)NO)c2ccccn2)c1` [Example 24, 7-[Pyridin-2-yl-(4-o-tolyl-pyridin-2-yl)-amino]-heptanoic acid hydroxyamide]: 5.79 and 6.70.
`O=C(CCCCCCN(c1ccccn1)c1cc(-c2ccccc2Cl)ccn1)NO` [Example 25, 7-{[4-(2-Chloro-phenyl)-pyridin-2-yl]-pyridin-2-yl-amino}-heptanoic acid hydroxyamide]: the pIC50 in test [1] was 5.97; in [4], 6.68.
For `O=C(CCCCCCN(c1ccccn1)c1cc(-c2ccccc2F)ccn1)NO` [Example 26, 7-{[4-(2-Fluoro-phenyl)-pyridin-2-yl]-pyridin-2-yl-amino}-heptanoic acid hydroxyamide], the pIC50 in [4] is 6.70.
As for `Cc1cccc(-c2ccnc(N(CCCCCCC(=O)NO)c3ccccn3)c2)c1` [Example 27, 7-[Pyridin-2-yl-(4-m-tolyl-pyridin-2-yl)-amino]-heptanoic acid hydroxyamide], the pIC50 in test [1] is 5.77; in [4], 7.09.
